Data on five compounds can be found in paper PMC8390754, “Engineering and functional characterization of a proton-driven β-lactam antibiotic translocation module for bionanotechnological applications” (Scientific Reports, 2021).

In data set [1] the test system is C[C@H](N)C(=O)N[C@@H](C)C(=O)O. Nature of the data set: radioligand uptake kinetics in E. coli; SSM electrophysiology in proteoliposomes. It counts as cell-based, Yersinia enterocolitica.
Data set [2] addresses T1, YePEPT (Yersinia enterocolitica, UniProt A0A2R9TD79, F311Y/K314A).
T1 construct: gene YEP4_02370
Nature of the data set: [3H]Ala-Ala uptake competition in E. coli overexpressing the transporter; transport confirmed by SSM electrophysiology in proteoliposomes. It counts as cell-based.

Data set [3] addresses T2, YePEPT (Yersinia enterocolitica, UniProt A0A2R9TD79, K314A).
T2 construct: gene YEP4_02370
In words: [3H]Ala-Ala uptake competition in E. coli at […]. The data set is classed as cell-based.

For data set [4], the target named is T3, YePEPT (Yersinia enterocolitica, UniProt A0A2R9TD79).
T3 construct: gene YEP4_02370; wild-type
T3 sequence (A0A2R9TD79 1-511): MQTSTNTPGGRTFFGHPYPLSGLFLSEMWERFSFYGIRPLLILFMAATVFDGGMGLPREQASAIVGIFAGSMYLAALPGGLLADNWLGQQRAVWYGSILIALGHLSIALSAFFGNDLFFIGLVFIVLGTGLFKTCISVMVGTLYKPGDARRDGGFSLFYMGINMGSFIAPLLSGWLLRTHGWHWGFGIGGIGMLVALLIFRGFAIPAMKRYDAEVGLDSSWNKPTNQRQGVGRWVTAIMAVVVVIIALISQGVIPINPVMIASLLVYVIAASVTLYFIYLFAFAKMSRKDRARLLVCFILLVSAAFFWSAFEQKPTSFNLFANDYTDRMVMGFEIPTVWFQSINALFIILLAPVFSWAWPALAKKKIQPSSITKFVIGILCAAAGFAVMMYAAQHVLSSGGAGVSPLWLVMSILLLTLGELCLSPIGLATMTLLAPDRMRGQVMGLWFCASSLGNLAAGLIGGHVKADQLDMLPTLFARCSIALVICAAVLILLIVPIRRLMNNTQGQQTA
Nature of the data set: [3H]Ala-Ala uptake competition in E. coli at […]. The note with it: read-out: % inhibition at 5 mM. The data set is classed as cell-based.

Data set [5] concerns the target T1, YePEPT. In words: SSM electrophysiology with proteoliposomes of purified transporter ([…]); also uptake inhibition in cells. The data set is classed as biochemical.

Consider “YePEPT (Yersinia enterocolitica subsp. palearctica YE-P4; F311Y/K314A)”, for which the Km in data set [1] is recorded as 199 µM.
At YePEPT [2], `CC=CC1=C(C(=O)O)N2C(=O)[C@@H](NC(=O)[C@H](N)c3ccc(O)cc3)[C@H]2SC1` [compound 7, cefprozil] showed an IC50 of 32 µM.
In turn, `CC1=C(C(=O)O)N2C(=O)[C@@H](NC(=O)[C@H](N)c3ccc(O)cc3)[C@H]2SC1` [compound 6, cefadroxil] displayed an IC50 at YePEPT [2] of 229 µM. For the same compound, on YePEPT [3], the “[3H]Ala-Ala uptake competition in E. coli at 5 mM” value is “YePEPT^K314A (Fig. 2c) showed a strong increase in affinity for amoxicillin and cefadroxil”.
Take `CC1(C)S[C@@H]2[C@H](NC(=O)[C@H](N)c3ccc(O)cc3)C(=O)N2[C@H]1C(=O)O` [compound 2, amoxicillin]: the inhibition at 5000 µM at YePEPT [4] is around 50%. The 50% inhibitory concentration (IC50) on YePEPT [2] was 106 µM. At YePEPT [3], the “[3H]Ala-Ala uptake competition in E. coli at 5 mM” value is “YePEPT^K314A (Fig. 2c) showed a strong increase in affinity for amoxicillin and cefadroxil”.
Regarding `CC1(C)S[C@@H]2[C@H](NC(=O)[C@H](N)c3ccccc3)C(=O)N2[C@H]1C(=O)O` [compound 1, ampicillin], the inhibition at 5000 µM at YePEPT [4] was around 50%. On YePEPT [5], the “% transported charge relative to Ala-Ala” value is 9 % transported charge relative to Ala-Ala.
